{"source": "paper PMC9757746", "about": "(Science Advances, 2022)", "assay_type_in_all_cases": "biochemical", "key": {"Cys4 (C. albicans CBS) [1]": {"target": "T1, Cys4 (C. albicans CBS) (Candida albicans, UniProt Q59T95)", "T1 sequence (Q59T95 1-496)": "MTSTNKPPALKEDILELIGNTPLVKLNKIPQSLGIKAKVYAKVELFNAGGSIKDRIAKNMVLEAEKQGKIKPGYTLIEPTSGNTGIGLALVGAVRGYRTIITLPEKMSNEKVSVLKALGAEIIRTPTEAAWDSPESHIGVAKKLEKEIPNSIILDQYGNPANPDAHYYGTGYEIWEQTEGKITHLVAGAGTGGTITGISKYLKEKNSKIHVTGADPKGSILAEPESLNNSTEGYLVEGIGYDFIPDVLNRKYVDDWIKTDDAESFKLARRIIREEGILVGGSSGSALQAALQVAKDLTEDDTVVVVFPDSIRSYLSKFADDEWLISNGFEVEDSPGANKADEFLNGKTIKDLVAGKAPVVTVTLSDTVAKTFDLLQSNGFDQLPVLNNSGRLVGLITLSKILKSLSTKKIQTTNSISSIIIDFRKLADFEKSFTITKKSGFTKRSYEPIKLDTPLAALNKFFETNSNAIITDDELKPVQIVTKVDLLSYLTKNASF", "experiment": "H2S generation, lead acetate, A390", "conditions": "10 mM L-cysteine, 10 mM L-homocysteine, 50 μM PLP, 200 mM Na/bicine pH 8.6, 37 °C; 10 min preincubation"}, "Cys4 (C. albicans CBS) [2]": {"target": "T1, Cys4 (C. albicans CBS)", "experiment": "H2S generation, lead acetate, A390", "conditions": "10 mM L-cysteine, 10 mM L-homocysteine, 50 μM PLP, 200 mM Na/bicine pH 8.6, 37 °C; screening hit"}, "Cys3 (C. albicans CSE)": {"target": "T2, Cys3 (C. albicans CSE) (Candida albicans, UniProt Q5A362)", "T2 sequence (Q5A362 1-399)": "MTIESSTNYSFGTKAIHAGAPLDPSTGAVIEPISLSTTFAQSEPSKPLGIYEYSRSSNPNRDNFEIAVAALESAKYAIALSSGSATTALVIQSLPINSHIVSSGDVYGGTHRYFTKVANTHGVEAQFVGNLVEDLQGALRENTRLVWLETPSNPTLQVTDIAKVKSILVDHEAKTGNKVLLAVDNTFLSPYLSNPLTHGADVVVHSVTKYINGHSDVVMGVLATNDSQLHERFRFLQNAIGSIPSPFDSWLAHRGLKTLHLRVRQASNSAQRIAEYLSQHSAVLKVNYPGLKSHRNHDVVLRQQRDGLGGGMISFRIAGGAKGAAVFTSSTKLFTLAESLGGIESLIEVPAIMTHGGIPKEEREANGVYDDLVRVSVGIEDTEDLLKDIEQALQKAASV", "experiment": "CSE activity inhibition", "conditions": "weaker inhibition than of CBS"}, "human CBS": {"target": "T3, human CBS (Homo sapiens, UniProt P35520)", "T3 sequence (P35520 1-551)": "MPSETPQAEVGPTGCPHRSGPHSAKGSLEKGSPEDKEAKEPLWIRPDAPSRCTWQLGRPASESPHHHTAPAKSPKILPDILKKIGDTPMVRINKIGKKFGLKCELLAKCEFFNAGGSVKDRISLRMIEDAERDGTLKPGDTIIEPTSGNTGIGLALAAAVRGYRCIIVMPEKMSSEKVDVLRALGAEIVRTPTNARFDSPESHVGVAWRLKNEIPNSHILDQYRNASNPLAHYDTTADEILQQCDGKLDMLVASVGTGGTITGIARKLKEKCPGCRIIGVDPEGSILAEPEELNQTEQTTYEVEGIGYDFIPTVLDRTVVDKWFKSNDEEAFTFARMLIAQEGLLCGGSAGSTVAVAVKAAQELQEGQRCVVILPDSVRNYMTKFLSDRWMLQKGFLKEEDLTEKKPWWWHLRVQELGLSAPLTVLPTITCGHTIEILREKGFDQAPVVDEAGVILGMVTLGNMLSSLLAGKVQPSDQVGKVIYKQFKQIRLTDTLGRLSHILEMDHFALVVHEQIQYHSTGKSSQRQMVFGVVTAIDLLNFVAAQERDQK", "experiment": "CBS activity inhibition", "conditions": "weaker inhibition than of fungal CBS"}, "cCBS-cc": {"target": "T4, cCBS-cc (Candida albicans, UniProt Q59T95)", "T4 sequence (Q59T95 1-319)": "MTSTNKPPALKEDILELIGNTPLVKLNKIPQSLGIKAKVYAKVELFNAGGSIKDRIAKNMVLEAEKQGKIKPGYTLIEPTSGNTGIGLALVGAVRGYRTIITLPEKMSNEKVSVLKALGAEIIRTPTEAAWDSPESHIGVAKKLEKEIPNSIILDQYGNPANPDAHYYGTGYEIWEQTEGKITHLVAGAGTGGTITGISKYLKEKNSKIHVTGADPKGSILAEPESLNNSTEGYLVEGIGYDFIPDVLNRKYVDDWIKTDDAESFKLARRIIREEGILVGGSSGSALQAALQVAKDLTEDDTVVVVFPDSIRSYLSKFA", "experiment": "H2S generation inhibition", "conditions": "catalytic core"}}, "data": [{"smiles": "NOCC(=O)O", "note": "[Aminooxyacetate]", "values": [{"measurement": "dose-dependent inhibition", "setting": "Cys4 (C. albicans CBS) [1]", "value": "Dose-dependent inhibition of C. albicans CBS activity by PA and AOA"}]}, {"smiles": "CC(=O)c1c(O)c(C)c(O)c2c1OC1=CC(=O)C(C(C)=O)C(=O)C12C", "note": "(stereo not drawn) [usnic acid]", "values": [{"measurement": "H2S generation, lead acetate, A390", "setting": "Cys4 (C. albicans CBS) [2]", "value": "alternariol, and usnic acid (Fig. 5A and fig. S17)"}]}, {"smiles": "C=C1C(=O)O[C@@H](CCCCCCCCCCCCC)[C@@H]1C(=O)O", "note": "[protolichesterinic acid]", "values": [{"measurement": "CSE activity inhibition", "setting": "Cys3 (C. albicans CSE)", "value": "it inhibited CBS more potently than CSE (fig. S18)"}, {"measurement": "CBS activity inhibition", "setting": "human CBS", "value": "fungal CBS more potently than human CBS (fig. S19)"}, {"measurement": "H2S generation inhibition", "setting": "cCBS-cc", "value": "still maintains potent ability to generate H2S and is inhibited by PA (fig. S24)"}]}, {"smiles": "Cc1cc(O)cc2oc(=O)c3c(O)cc(O)cc3c12", "note": "[alternariol]", "values": [{"measurement": "H2S generation, lead acetate, A390", "setting": "Cys4 (C. albicans CBS) [2]", "value": "several hits that displayed much better activity than AOA, including PA"}]}]}
